From patent US11466047B2, “Cyclic di-nucleotide compounds as sting agonists” (Merck Sharp & Dohme Corp., priority 2017, dated 2022)

What was measured:
full-length WT STING = full-length WT STING (Homo sapiens (Human), UniProt Q86WV6, H232R); assay: 3H-cGAMP filtration binding assay (WT STING); details: competition with tritiated cGAMP ligand, WT STING membrane; read-out: EC50
Method: (§1) The ability of compounds to bind STING is quantified by their ability to compete with tritiated cGAMP ligand for human STING receptor membrane using a radioactive filter-binding assay. The binding assay employs STING receptor obtained from Trichoplusia ni cell membranes (T.ni; Expression Systems, cat #94-002F, overexpressing full-length WT STING and tritiated cGAMP ligand.
The basic WT STING filtration assay protocol is as follows:
16 nM of [^3H] c-GAMP ligand was prepared by diluting into assay buffer, and 50 uL of this working stock was manually added to each well of the assay plate. After ligand addition, 2 uL of either titrated test compound, DMSO control (Sigma #276855), or cold cGAMP control was added to the appropriate wells using a BIOMEK FX. The serially titrated compound was prepared on a Hamilton STARPlus CORE in a 96-well plate (Greiner, #651201) using a 1:3 ten-point dose response format. Following compound addition, a 2.2 ug/ml working concentration of STING membrane (SEQ. ID. No. 3) was prepared by diluting concentrated membrane into assay buffer (1×PBS; Invitrogen #SH30028.02) and douncing 7× using a manual tissue homogenizer (Wheaton, #357546). 148 uL of this prepared membrane was then manually added to each well of a 96-well deep-well polypropylene plate (Fisher Scientific, #12-566-121). Compound, ligand, and membrane then incubated for 60 min at RT before the contents of each assay plate were filtered through a 96-well GF/B filter plate (PerkinElmer, #6005250) using a TOMTEC MACH III Cell Harvester equipped with 20 mM HEPES buffer (Fisher Scientific, #BP299500). The filter plates were then dried at 55° C. for 30 min using a pressurized VWR oven before 30 uL of ULTIMA GOLD F scintillate was added to each well. Tritium levels for each reaction well were then measured using a PerkinElmer TopCount plate reader.
(§2) After normalization to controls, the percent activity for each compound concentration was calculated by measuring the amount of remaining radioactivity. The plot of percent activity versus the log of compound concentration was fit with a 4-parameter dose response equation to calculate EC50 values.

THP1 cells = assay: IFN-β secretion in THP1 cell culture (5 h); type: cell-based, human; details: Homo sapiens, THP-1, 5 h, 30 μM compound, relative to 2′3′-cGAMP at 30 μM, read-out: % Effect at 30 μM relative to 2′3′-cGAMP
Method: The ability of compounds to stimulate the secretion of interferon-beta from THP1 cells was measured using a human IFN-β AlphaLISA kit (Perkin Elmer, Cat. No. AL265F). The basic protocol is as follows:
A Labcyte Echo 550 acoustic dispenser was used to transfer 120 nL of compound dissolved in DMSO into the wells of an empty, sterile 384-well microplate, (Corning, Cat. No. 3712). THP1 cells (American Type Culture Collection, Cat. No. TIB202) previously frozen in Recovery Medium (Life Technologies, Cat. No. 12648-010) were thawed and immediately diluted 10-fold into 37° C. assay medium (RPMI 1640+L-Glutamine & phenol red, Life Technologies, Cat. No. 11875-085; 0.5% heat inactivated fetal bovine serum, Sigma Aldrich, Cat. No. F4135; 1 mM Sodium Pyruvate, Life Technologies, Cat. No. 11360-070; lx non-essential amino acids; Life Technologies, Cat. No. 11140-050). The cell viability and count was ascertained using a Beckman Coulter V-Cell XR cell counter. The cell suspension was centrifuged at 200×g for 5 min at RT. Cells were resuspended to a density of 0.8×10^6/mL in 37° C. assay medium. Subsequent liquid transfers were performed using either a Matrix electronic multichannel pipette or an Agilent Bravo Automated Liquid Handling Platform.
The assay was started by dispensing 40 μL of the previously prepared cell suspension into the wells of the plate containing compounds. After 5 h incubation at 37° C., 5% CO2 in a humidified atmosphere, the plate of cells and compounds was centrifuged at 200×g for 5 min at RT. From each well, 5 μL of supernatant was transferred into corresponding wells of a white 384-well plate (Perkin Elmer, Cat. No. 6005620). To these supernatant-containing wells was added 10 μL of 5× Anti-Analyte Acceptor beads (50 μg/mL of AlphaLISA HiBlock Buffer) and incubated for 30 min at RT while shaking on an orbital plate shaker. To each well was added 10 μL of 5× Biotinylated Antibody Anti-analyte (5 nM in AlphaLISA HiBlock Buffer) and incubated on an orbital plate shaker for 60 min at RT or overnight at 4° C. To each well was added 25 μL of 2×SA-Donor beads (80 μg/mL in AlphaLISA HiBlock Buffer) and incubated for 30-45 min at RT in the dark while shaking on an orbital plate shaker. The plate was then read on a Perkin Elmer Envision (λex=680 nm, λem=570 nm). The percent effect of the AlphaLISA signal at each compound concentration was calculated based on 30 uM cGAMP positive controls and 0.3% DMSO negative controls. The plot of percent effect versus the log of compound concentration was fit with a 4-parameter concentration response equation to calculate EC50 values. The test compounds were tested at concentrations 30000, 10000, 3333, 1111, 370.4, 123.4, 41.2, 13.7, 4.6, and 1.5 nM with 0.3% residual DMSO. The control compound, cGAMP was tested at concentrations 100000, 33333, 11111, 3704, 1235, 412, 137, 46, and 15 nM with 0.3% residual DMSO.
Compounds of the disclosure were evaluated for IFN-β secretion in THP1 cell culture as described above. The following table tabulates the biological data for these compounds as percent activation relative to 2′3′-cGAMP at the 30 μM concentration.

full-length HAQ STING = full-length HAQ STING (Homo sapiens (Human), UniProt Q86WV6, G230A/H232R/R293Q/R71H); assay: 3H-cGAMP filtration binding assay (HAQ STING); details: competition with tritiated cGAMP ligand, HAQ STING membrane
Sequence of full-length HAQ STING (Q86WV6 whole entry, looked up, stated change not applied): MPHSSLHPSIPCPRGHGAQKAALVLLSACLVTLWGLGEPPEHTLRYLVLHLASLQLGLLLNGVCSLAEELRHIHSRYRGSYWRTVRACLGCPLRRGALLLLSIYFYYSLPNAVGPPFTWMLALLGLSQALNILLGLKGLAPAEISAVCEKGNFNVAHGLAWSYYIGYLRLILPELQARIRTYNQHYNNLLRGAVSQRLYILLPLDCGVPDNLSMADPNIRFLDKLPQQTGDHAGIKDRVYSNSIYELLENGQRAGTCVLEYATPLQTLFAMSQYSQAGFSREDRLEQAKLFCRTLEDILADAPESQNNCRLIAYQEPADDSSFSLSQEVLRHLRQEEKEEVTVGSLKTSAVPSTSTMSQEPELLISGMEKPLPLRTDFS
Source text: The ability of compounds to bind STING is quantified by the ability to compete with tritiated cGAMP ligand for human STING receptor membrane using a radioactive filter-binding assay. The binding assay employs STING receptor obtained from Hi-Five cell membranes overexpressing full-length HAQ STING prepared in-house and tritiated cGAMP ligand also purified in-house.
as §1, with “#94-002F, www.expressionsystems.com)” for “#94-002F,”, “HAQ” for “WT”
The basic HAQ STING filtration assay protocol is as follows:
The compounds were serially titrated by the Hamilton STARPlus CORE in a 96-well plate (Greiner, #651201) using a 1:3 ten-point dose response format. After compound preparation, a 2.2 ug/ml working concentration of STING membrane (SEQ. ID. No. 1) was prepared by diluting concentrated membrane into assay buffer (lx PBS; Invitrogen #SH30028.02) and douncing 7× using a manual tissue homogenizer (Wheaton, #357546). 148 uL of prepared membrane was then manually added to each well of a 96-well deep-well polypropylene plate (Fisher Scientific, #12-566-121). Following membrane addition, 2 uL of either titrated test compound, DMSO control (Sigma #276855), or cold cGAMP control was added to the appropriate wells using a BIOMEK FX. Compound and membrane then preincubated for 60 min at RT to allow compound binding to equilibrate. Following equilibration, 8 nM of [^3H]c-GAMP ligand was prepared by diluting into assay buffer, and 50 uL of this working stock was then manually added to each well of the assay plate. Plates were then incubated at RT for 60 min, and the contents of each assay plate were then filtered through a 96-well GF/B filter plate (PerkinElmer, #6005250) using a TOMTEC MACH III Cell Harvester equipped with 20 mM HEPES buffer (Fisher Scientific, #BP299500). The filter plates were then dried at 55° C. for 30 min using a pressurized oven before 30 uL of ULTIMA GOLD F scintillate was added to each well. Tritium levels for each reaction well were then measured using a PerkinElmer TopCount plate reader.
as §2

Sequence of full-length WT STING (Q86WV6 whole entry, looked up, stated change not applied): as above

SMILES	EC50 (full-length WT STING)	activation at 30 µM (THP1 cells)	EC50 (full-length HAQ STING)
Nc1nc2c(ncn2[C@@H]2S[C@@H]3COP(=S)(S)O[C@H]4[C@H](F)[C@H](n5cnc6c(N)ncnc65)O[C@@H]4COP(O)(=S)O[C@@H]2[C@@H]3O)c(=O)[nH]1 (stereo partly drawn) [Example 16, 2-amino-9-[(5R,7R,8R,12aR,14R,15S,15aR,16S)-14-(6-amino-9H-purin-9-yl)-15-fluoro-10,16-dihydroxy-2-sulfanyl-2,10-disulfidooctahydro-12H-5,8-methanofuro[3,2-l][1,3,9,11,6,2,10]tetraoxathiadiphosphacyclotetradecin-7-yl]-1,9-dihydro-6H-purin-6-one]	18 nM	107%	5 nM
Nc1nc2c(ncn2[C@@H]2S[C@@H]3COP(=S)(S)O[C@H]4[C@H](F)[C@H](n5cnc6c(N)ncnc65)O[C@@H]4COP(=O)(O)O[C@@H]2[C@@H]3O)c(=O)[nH]1 (stereo partly drawn) [Example 20, 2-amino-9-[(5R,7R,8R,12aR,14R,15S,15aR,16S)-14-(6-amino-9H-purin-9-yl)-15-fluoro-10,16-dihydroxy-10-oxido-2-sulfanyl-2-sulfidooctahydro-12H-5,8-methanofuro[3,2-l][1,3,9,11,6,2,10]tetraoxathiadiphosphacyclotetradecin-7-yl]-1,9-dihydro-6H-purin-6-one]	3 nM	137%	1 nM
Nc1nc2c(ncn2[C@@H]2S[C@@H]3COP(=S)(S)O[C@H]4[C@H]5OC[C@]4(COP(=O)(O)O[C@@H]2[C@@H]3O)O[C@H]5n2cnc3c(N)ncnc32)c(=O)[nH]1 (stereo partly drawn) [Example 21, 2-amino-9-[(5R,7R,8R,12aR,14R,15R, 15aS,18S)-14-(6-amino-9H-purin-9-yl)-10,18-dihydroxy-10-oxido-2-sulfanyl-2-sulfidohexahydro-14H-15,12a-(epoxymethano)-5,8-methanofuro[3,2-1][1,3,9,11,6,2,10]tetraoxathiadiphosphacyclotetradecin-7(12H)-yl]-1,9-dihydro-6H-purin-6-one]	1550 nM	45%	217 nM
